Earlier results in US20040072789A1, “Veterinary composition for the topical treatment of traumatized or inflamed skin” (priority 2000, published 2004).

Test system: fungal infections of the skin

In the case of COC1=CC(=O)C[C@@H](C)[C@]12Oc1c(Cl)c(OC)cc(OC)c1C2=O [griseofulvin], the “effect of topical administration on fungal infections of the skin” value is listed as “very limited effect”.
